From US12576169B2, “Silicon-fluoride acceptor substituted radiopharmaceuticals and precursors thereof” (Technische Universität München, priority 2019, dated 2026)
Read-outs that look alike come from different tables or passages of the source.

Tests used:
[1] = n-Octanol-PBS partition coefficient (logD7.4); assay type: physicochemical; settings: 18F-labeled ligand; n-octanol/PBS pH=7.4; mean ± SD (n = 5)
Description: Approx. 0.5 MBq of the ^18F-labeled SiFA-PSMA ligand were added into a test tube containing n-octanol (500 μL) and PBS (500 μL, pH=7.4). After vigorously shaking the two-phase mixture for 3 min at rt, the test tube was centrifuged at 9.000 rpm for 5 min to achieve quantitative phase separation. Finally, 150 μL of each layer were pipetted off and measured for activity using a gamma counter. After repeating the experiment for at least five times, the n-octanol-PBS partition coefficient log D7.4 was calculated according to following formula.

LNCaP cells = assay: Internalization of 18F-labeled ligands into LNCaP cells; assay type: cell-based, human; settings: internalized activity at 1 h in % of reference [125I]XII; c = 0.5 nM; LNCaP cells (125.000 cells/well); 37° C., DMEM/F-12 add. 5% BSA; corrected for non-specific binding (10 μm PMPA); mean ± SD (n = 3)
Description: LNCaP cells were grown in DMEM/F-12 (add. 10% FCS, v/v) and maintained at 37° C. in a humidified 5% CO2 atmosphere. […] Subsequent to the removal of the culture medium, cells were washed with DMEM-F12 (add. 5% BSA, v/v, 500 μL) and left to equilibrate in DMEM-F12 (add. 5% BSA, v/v, 200 μL) at 37° C. for 15 min. Each well was treated with either DMEM-F12 (add. 5% BSA, v/v, 25 μL) or a 2-(phosphonomethyl)-pentandioic acid (PMPA) solution (100 μM in PBS, 25 μL) for blockade. Afterwards, the ^18F-labeled SiFA-PSMA ligand (5 nM in PBS, 25 μL) was added and the cells were incubated for 1 h at 37° C. The experiment was terminated by placing the 24-well plate on ice for 3 min and removal of the assay medium. Each well was rinsed with HBSS (4° C., 250 μL) and the fractions were combined with the previous assay medium, representing the amount of unbound radioligand. For removal of surface bound activity, LNCaP cells were incubated with PMPA solution (10 μM in PBS, 4° C., 250 μL) for 5 min and rinsed again with PBS (250 μL, 4° C.). The internalized activity was determined by incubation of LNCaP cells with 1 M aq. NaOH (250 μL) for at least 10 min and combination with the fraction of a subsequent wash step with 1 M aq. NaOH (200 μL). Each experiment (control and blockade) was performed in triplicate. […] All internalization studies were accompanied by reference studies using the reference compound XII (2 nM in HBSS add. 1% BSA, v/v), which were performed analogously. Data were corrected for non-specific internalization and normalized to the specific-internalization observed for the radioiodinated reference compound.

PSMA = PSMA (Homo sapiens, UniProt Q04609); assay: IC50 determination: PSMA binding affinity, competition with [125I]XII on LNCaP cells
Description: LNCaP cells were grown in Dulbecco's Modified Eagle Medium/Nutrient Mixture F-12 (DMEM/F-12, add. 10% fetal calf serum (FCS), v/v) and maintained at 37° C. in a humidified 5% CO2 atmosphere. […] After removal of the culture medium, LNCaP cells were treated with HBSS (add. 1% BSA, v/v, 4° C., 500 μL) and subsequently left 15 min on ice for equilibration in HBSS (add. 1% BSA, v/v, 4° C., 200 μL). […] For the control series, HBSS (add. 1% BSA, v/v, 25 μL) was used instead of the SiFA-PSMA ligand solution. Each concentration and the control were prepared in triplicate. After 1 h incubation on ice, the assay medium was removed and cells were washed with HBSS (200 μL, 4° C.). […] NaOH (200 μL) for at least 10 min and the resulting cell lysate was removed. The wells were treated again with 1 M aq. […] The experiment was repeated for at least three times and the IC50 value calculated using the GraphPad PRISM 8.0.2 software (Graphpad Software Inc., La Jolla, United States).

[2] = biological target: T1, human serum albumin (HSA) (Homo sapiens, UniProt P02768); assay: Binding to HSA on a Chiralpak HSA column; assay type: in vitro ADME; settings: calibration with nine reference substances
T1 construct: purchased H13H-2433
Description: For the determination of human serum albumin (HSA) binding, a Chiralpak HSA column (50×3 mm, 5 μm, H13H-2433) was used at a constant flow rate of 0.5 mL/min. The mobile phase composed of a 50 mM NH4OAc solution in water with pH=7 (solvent C) and isopropanol (solvent D) was freshly prepared for each experiment and used only once. The reference substances (Table 1) as well as the analyzed SiFA-PSMA ligands were dissolved in a mixture of solvent C/solvent D (1:1, v/v, 0.5 mg/mL) and eluted from the HSA column (0-3 min: 100% C, 3-20 min: 20% D in C, λ=254 nm). The column was kept at rt and each run was stopped after detection of the signal to reduce the acquisition time. The nine reference substances display an HSA binding range of 13% to 99% and were injected consecutively in order to establish a sigmoidal calibration curve with the software OriginPro 2018b (FIG. 1).

[3] = LNCaP cells (150.000 cells/well), reference [125I]XII c = 0.2 nM, 1 h, 4° C., HBSS add. 1% BSA, mean ± SD (n = 3)

Sequence of PSMA (Q04609 whole entry): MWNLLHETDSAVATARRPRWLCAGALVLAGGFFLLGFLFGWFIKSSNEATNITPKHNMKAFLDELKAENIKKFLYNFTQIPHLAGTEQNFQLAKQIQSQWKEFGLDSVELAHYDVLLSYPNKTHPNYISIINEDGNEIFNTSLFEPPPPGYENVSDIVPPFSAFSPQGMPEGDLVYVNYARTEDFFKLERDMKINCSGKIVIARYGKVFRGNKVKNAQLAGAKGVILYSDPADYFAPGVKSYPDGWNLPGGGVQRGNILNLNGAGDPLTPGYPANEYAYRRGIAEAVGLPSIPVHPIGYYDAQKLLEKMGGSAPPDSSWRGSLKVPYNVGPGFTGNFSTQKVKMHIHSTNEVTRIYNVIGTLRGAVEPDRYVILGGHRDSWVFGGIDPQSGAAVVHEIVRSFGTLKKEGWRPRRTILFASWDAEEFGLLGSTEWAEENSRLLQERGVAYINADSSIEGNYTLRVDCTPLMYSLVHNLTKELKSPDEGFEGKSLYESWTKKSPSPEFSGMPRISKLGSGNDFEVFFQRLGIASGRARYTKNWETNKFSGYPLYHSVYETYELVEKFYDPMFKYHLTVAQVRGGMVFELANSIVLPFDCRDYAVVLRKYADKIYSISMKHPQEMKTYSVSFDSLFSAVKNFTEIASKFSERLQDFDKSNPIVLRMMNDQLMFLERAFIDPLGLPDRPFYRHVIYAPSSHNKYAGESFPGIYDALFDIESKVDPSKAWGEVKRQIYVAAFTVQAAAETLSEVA
T1 sequence (P02768 25-609): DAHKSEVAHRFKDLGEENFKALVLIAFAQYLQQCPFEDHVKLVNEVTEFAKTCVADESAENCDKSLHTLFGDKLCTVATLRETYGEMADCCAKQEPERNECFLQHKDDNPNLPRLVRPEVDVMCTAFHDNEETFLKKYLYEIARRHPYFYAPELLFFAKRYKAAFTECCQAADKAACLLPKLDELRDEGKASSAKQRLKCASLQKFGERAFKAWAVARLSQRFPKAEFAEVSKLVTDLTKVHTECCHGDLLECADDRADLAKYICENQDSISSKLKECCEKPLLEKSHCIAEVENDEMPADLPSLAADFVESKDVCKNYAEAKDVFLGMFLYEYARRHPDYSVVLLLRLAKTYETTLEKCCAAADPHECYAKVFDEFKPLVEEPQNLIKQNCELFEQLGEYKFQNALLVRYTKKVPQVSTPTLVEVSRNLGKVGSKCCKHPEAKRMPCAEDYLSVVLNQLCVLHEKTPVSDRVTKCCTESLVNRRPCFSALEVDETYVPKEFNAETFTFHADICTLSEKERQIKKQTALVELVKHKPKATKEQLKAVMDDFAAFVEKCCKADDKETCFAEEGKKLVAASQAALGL

Row | Compound | logD7.4 [1] | Internalization (LNCaP cells) | IC50 (PSMA; [3]) | Binding to HSA [2] | IC50 (PSMA)
1 | CC(C)(C)[Si](F)(c1ccc(C(=O)NC[C@@H](NC(=O)[C@@H](CC(=O)O)NC(=O)CC[C@H](NC(=O)N[C@@H](CCC(=O)O)C(=O)O)C(=O)O)C(=O)N[C@H](CCCCNC(=O)CCC(=O)NCCC[C@@H](NC(=O)CC[C@H](NC(=O)N[C@@H](CCC(=O)O)C(=O)O)C(=O)O)C(=O)O)C(=O)O)cc1)C(C)(C)C [SiFA-PSMA ligand 01 a] | −4.02 ± 0.04 | 162.54 ± 7.08% | 7.8 ± 0.8 nM | ≥99.0% | 
2 | CC(C)(C)[Si](F)(c1ccc(C(=O)NC[C@@H](NC(=O)[C@@H](CCC(=O)O)NC(=O)CC[C@H](NC(=O)N[C@@H](CCC(=O)O)C(=O)O)C(=O)O)C(=O)N[C@H](CCCCNC(=O)CCC(=O)NCCC[C@@H](NC(=O)CC[C@H](NC(=O)N[C@@H](CCC(=O)O)C(=O)O)C(=O)O)C(=O)O)C(=O)O)cc1)C(C)(C)C [SiFA-PSMA ligand 01 b] | −4.04 ± 0.08 | 126.43 ± 4.23% | 11.8 ± 2.2 nM | ≥99.0% | 
3 | CC(C)(C)[Si](F)(c1ccc(C(=O)NC[C@@H](NC(=O)[C@H](CCC(=O)O)NC(=O)CC[C@H](NC(=O)N[C@@H](CCC(=O)O)C(=O)O)C(=O)O)C(=O)N[C@H](CCCCNC(=O)CCC(=O)NCCC[C@@H](NC(=O)CC[C@H](NC(=O)N[C@@H](CCC(=O)O)C(=O)O)C(=O)O)C(=O)O)C(=O)O)cc1)C(C)(C)C [SiFA-PSMA ligand 01 c] | −3.72 ± 0.02 | 175.08 ± 5.93% | 17 ± 0.9 nM | ≥98.9% | 
4 | CC(C)(C)[Si](F)(c1ccc(C(=O)NC[C@@H](NC(=O)[C@@H](CCCNC(N)=O)NC(=O)CC[C@H](NC(=O)N[C@@H](CCC(=O)O)C(=O)O)C(=O)O)C(=O)N[C@H](CCCCNC(=O)CCC(=O)NCCC[C@@H](NC(=O)CC[C@H](NC(=O)N[C@@H](CCC(=O)O)C(=O)O)C(=O)O)C(=O)O)C(=O)O)cc1)C(C)(C)C [SiFA-PSMA ligand 01 d] | −3.28 ± 0.03 | 95.68 ± 9.86% | 13 ± 1.2 nM | ≥98.9% | 
5 | CC(C)(C)[Si](F)(c1ccc(C(=O)NC[C@@H](NC(=O)[C@@H](CN)NC(=O)CC[C@H](NC(=O)N[C@@H](CCC(=O)O)C(=O)O)C(=O)O)C(=O)N[C@H](CCCCNC(=O)CCC(=O)NCCC[C@@H](NC(=O)CC[C@H](NC(=O)N[C@@H](CCC(=O)O)C(=O)O)C(=O)O)C(=O)O)C(=O)O)cc1)C(C)(C)C [SiFA-PSMA ligand 01 e] | −3.96 ± 0.07 | 125.13 ± 1.14% | 9.2 ± 1.4 nM | ≥99.0% | 
6 | CC(C)(C)[Si](F)(c1ccc(C(=O)NC[C@@H](NC(=O)[C@@H](CCCN)NC(=O)CC[C@H](NC(=O)N[C@@H](CCC(=O)O)C(=O)O)C(=O)O)C(=O)N[C@H](CCCCNC(=O)CCC(=O)NCCC[C@@H](NC(=O)CC[C@H](NC(=O)N[C@@H](CCC(=O)O)C(=O)O)C(=O)O)C(=O)O)C(=O)O)cc1)C(C)(C)C [SiFA-PSMA ligand 01 f] | −3.65 ± 0.09 | 123.13 ± 2.14% | 8.3 ± 1.5 nM | 98.9% | 
7 | CC(C)(C)[Si](F)(c1ccc(C(=O)N[C@H](CC(=O)N[C@H](CC(=O)NCCC[C@@H](NC(=O)c2cc(C(=O)O)cc(C(=O)O)c2)C(=O)NCCCC[C@@H](NC(=O)CC[C@H](NC(=O)N[C@@H](CCC(=O)O)C(=O)O)C(=O)O)C(=O)O)C(=O)O)C(=O)N[C@H](CC(=O)NCCC[C@@H](NC(=O)c2cc(C(=O)O)cc(C(=O)O)c2)C(=O)NCCCC[C@@H](NC(=O)CC[C@H](NC(=O)N[C@@H](CCC(=O)O)C(=O)O)C(=O)O)C(=O)O)C(=O)O)cc1)C(C)(C)C [SiFA-PSMA ligand 07] | −3.45 ± 0.01 | 311.75 ± 7.30% |  |  | 5.5 ± 0.6 nM
